Tests used:
[1] = molecular target: PDGFR-β (Homo sapiens (Human), UniProt P09619); experiment: PDGFR-β tyrosine kinase inhibitory action (HTRF KinEASE-TK); type: biochemical; conditions: PDGFR-β enzyme 1 ng/μL, 30° C. for 30 minutes; read-out: PDGF-β IC50
Protocol: (§1) 1. Preparation of Test Substance
This DMSO solution was diluted by 8 times with an assay buffer 1 (50 mM HEPES (pH 7.0), 0.02% NaN3, 0.01% Bovine Serum Albumin, 0.1 mM orthovanadate, 1 mM Dithiothreitol, 5 mM MgCl2, and 1 mM MnCl2) and further diluted by 5 times with an assay buffer 2 (50 mM HEPES (pH 7.0), 0.02% NaN3, 0.01% Bovine Serum Albumin, 0.1 mM orthovanadate, 1 mM Dithiothreitol, 5 mM MgCl2, 1 mM MnCl2, and 40 nM Supplemented Enzymatic Buffer (cisbio)).
2. Measurement of PDGFR-β Tyrosine Kinase Inhibitory Action
For the measurement, the HTRF KinEASE-TK kit from Cisbio Bioassays SAS was used. To a 384 well plate, the test substance solution was added at 4 μL each, then 2 μL of a PDGFR-β enzyme solution (final concentration of 1 ng/μL, Carna Biosciences, Inc.) and 4 μL of a substrate solution obtained by adding 0.6 μM ATP to TK substrate-3-biotin (cisbio) were added, and the solution was allowed to react at 30° C. for 30 minutes at a final concentration of the test substance being 0.01 to 10,000 nM.
Thereafter, 10 μL of a detection solution (cisbio) was added to each well and allowed to react at 30° C. for 1 hour. The fluorescence intensity was measured with a microplate reader (Spectra Max M5, Molecular device).
(§2) 3. Analysis of Measurement Results

[2] = system: pulmonary arterial smooth muscle cells; experiment: Suppression of proliferation of pulmonary arterial smooth muscle cells (PDGF-BB stimulation, BrdU); type: cell-based; conditions: PASMC, 24 h; healthy human derived pulmonary arterial smooth muscle cells; human PDGF-BB 10 ng/mL stimulation; BrdU uptake after 1 day; test substance final concentration 3 to 10,000 nM; read-out: Human normal PASMC proliferation suppression (PDGF stimulation_IC50)
Protocol: as §1
Furthermore, it was diluted by 50 times with distilled water.
2. Measurement of Suppression Action Against Proliferation of Pulmonary Arterial Smooth Muscle Cells
The day after healthy human derived pulmonary arterial smooth muscle cells were seeded onto a 96 well plate using a smooth muscle cell proliferation medium, the proliferation medium was replaced with a 0.1% FBS medium, and the cells were cultured for an additional day. A test substance solution was diluted by 10 times with a medium containing BrdU and human PDGF-BB (final concentration of 10 ng/mL, Sigma-Aldrich) and added to cells in equal amounts so as to reach a final concentration of 3 to 10,000 nM. Also, to the human PDGF-BB negative control, BrdU and 0.1% DMSO solution were added. After culturing for 1 day, the amount of BrdU taken up by the proliferating cells was measured using an anti-BrdU antibody.
as §2

PDGFR-β, sequence (P09619 33-1106): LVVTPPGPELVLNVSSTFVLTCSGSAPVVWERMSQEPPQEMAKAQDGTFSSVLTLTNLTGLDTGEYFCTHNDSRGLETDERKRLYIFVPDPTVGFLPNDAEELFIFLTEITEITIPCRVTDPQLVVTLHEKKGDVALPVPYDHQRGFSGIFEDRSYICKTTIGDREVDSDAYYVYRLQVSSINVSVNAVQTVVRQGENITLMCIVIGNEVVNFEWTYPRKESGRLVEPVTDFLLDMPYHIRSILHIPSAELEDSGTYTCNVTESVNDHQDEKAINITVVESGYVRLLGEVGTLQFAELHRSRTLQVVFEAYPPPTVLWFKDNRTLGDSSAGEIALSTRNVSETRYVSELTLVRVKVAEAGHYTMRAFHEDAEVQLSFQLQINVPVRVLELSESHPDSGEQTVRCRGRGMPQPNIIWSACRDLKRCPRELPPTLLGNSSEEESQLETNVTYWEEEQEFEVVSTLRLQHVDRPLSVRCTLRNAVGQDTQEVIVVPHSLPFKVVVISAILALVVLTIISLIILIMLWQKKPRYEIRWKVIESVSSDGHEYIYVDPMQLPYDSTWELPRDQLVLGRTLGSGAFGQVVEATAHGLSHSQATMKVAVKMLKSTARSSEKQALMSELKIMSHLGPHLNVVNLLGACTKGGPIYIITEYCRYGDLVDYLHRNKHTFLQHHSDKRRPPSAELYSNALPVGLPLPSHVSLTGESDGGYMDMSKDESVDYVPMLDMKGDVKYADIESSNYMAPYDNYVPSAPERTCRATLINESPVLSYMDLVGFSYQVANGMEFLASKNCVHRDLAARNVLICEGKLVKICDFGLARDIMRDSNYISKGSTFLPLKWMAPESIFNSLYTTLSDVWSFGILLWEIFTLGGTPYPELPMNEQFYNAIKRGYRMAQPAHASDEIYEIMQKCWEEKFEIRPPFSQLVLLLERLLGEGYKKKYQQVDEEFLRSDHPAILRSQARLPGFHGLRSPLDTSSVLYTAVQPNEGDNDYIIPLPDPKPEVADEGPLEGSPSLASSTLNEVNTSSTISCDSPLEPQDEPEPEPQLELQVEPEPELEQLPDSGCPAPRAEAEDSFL

| Structure (SMILES) | IC50 [1] | IC50 [2] |
| --- | --- | --- |
| Cc1ncc(C(=O)N[C@H]2CCCC[C@@H]2O)cc1C#Cc1cncc(C2CC2)c1 [Example 73, 5-[(5-cyclopropylpyridin-3-yl)ethynyl]-N-[(1S,2S)-2-hydroxycyclohexyl]-6-methylpyridine-3-carboxamide] | 220 nM | 80 nM |
| Cc1ccc(C(=O)N[C@H]2CCCC[C@@H]2O)cc1C#Cc1cncc(Br)n1 [Example 74, 3-[(6-bromopyrazin-2-yl)ethynyl]-N-[(1S,2S)-2-hydroxycyclohexyl]-4-methylbenzamide] | 180 nM | 18 nM |
| Cc1ccc(C(=O)N[C@@H](CO)[C@@H](O)c2ccccc2)cc1C#Cc1cncc(Br)c1 [Example 76, 3-[(5-bromopyridin-3-yl)ethynyl]-N-[(1S,2S)-1,3-dihydroxy-1-phenylpropan-2-yl]-4-methylbenzamide] | 49 nM | 27 nM |
| CNc1ncc2c(Nc3cc(C(=O)N[C@H]4CCCC[C@@H]4O)ccc3C)cccc2n1 [Example 82, N-[(1S,2S)-2-hydroxycyclohexyl]-4-methyl-3-{[2-(methylamino)quinazolin-5-yl]amino}benzamide] | 27 nM | 72 nM |
| Cc1ccc(C(=O)N[C@@H](CO)[C@@H](O)c2ccccc2)cc1N1CCc2nc(N)ncc2C1 [Example 83, 3-(2-amino-7,8-dihydropyrido[4,3-d]pyrimidin-6(5H)-yl)-N-[(1S,2S)-1,3-dihydroxy-1-phenylpropan-2-yl]-4-methylbenzamide] | 5 nM | 48 nM |
| Cc1ccc(C(=O)N[C@H]2CCCC[C@@H]2O)cc1NCc1cnc2[nH]ncc2c1 [Example 109, N-[(1S,2S)-2-hydroxycyclohexyl]-4-methyl-3-{[(1H-pyrazolo[3,4-b]pyridin-5-yl)methyl]amino}benzamide] | 46 nM | 170 nM |
| Cc1ccc(C(=O)N[C@H]2CCCC[C@@H]2O)cc1NCc1cnc2cccnn12 [Example 110, N-[(1S,2S)-2-hydroxycyclohexyl]-3-{[(imidazo[1,2-b]pyridazin-3-yl)methyl]amino}-4-methylbenzamide] | 350 nM | 240 nM |
| Cc1ccc(C(=O)N[C@H]2CCCC[C@@H]2O)cc1NCc1cncc(-c2cn3ccnc3cn2)c1 [Example 111, N-[(1S,2S)-2-hydroxycyclohexyl]-3-({[5-(imidazo[1,2-a]pyrazin-6-yl)pyridin-3-yl]methyl}amino)-4-methylbenzamide] | 150 nM | 380 nM |
| Cc1ccc(C(=O)N[C@H]2CCCC[C@@H]2O)cc1NCc1ccc(NCC2CC2)nc1 [Example 117, 3-[({6-[(cyclopropylmethyl)amino]pyridin-3-yl}methyl)amino]-N-[(1S,2S)-2-hydroxycyclohexyl]-4-methylbenzamide] | 79 nM | 230 nM |
| Cc1ccc(C(=O)N[C@H]2CCCC[C@@H]2O)cc1NCc1ccc(-c2ccccn2)nc1 [Example 118, 3-{[([2,2′-bipyridin]-5-yl)methyl]amino}-N-[(1S,2S)-2-hydroxycyclohexyl]-4-methylbenzamide] | 390 nM | 140 nM |
| Cc1ccc(C(=O)N[C@H]2CCCC[C@@H]2O)cc1NCc1cnn2cccnc12 [Example 119, N-[(1S,2S)-2-hydroxycyclohexyl]-4-methyl-3-{[(pyrazolo[1,5-a]pyrimidin-3-yl)methyl]amino}benzamide] | 330 nM | 93 nM |
| Cc1ccc(C(=O)N[C@H]2CCCC[C@@H]2O)cc1NCc1ccc(NC(=O)C2CC2)nc1 [Example 120, 3-[({6-[(cyclopropanecarbonyl)amino]pyridin-3-yl}methyl)amino]-N-[(1S,2S)-2-hydroxycyclohexyl]-4-methylbenzamide] | 20 nM | 34 nM |
| Cc1ccc(C(=O)N[C@H]2CCCC[C@@H]2O)cc1NCc1cnc(-c2ccccc2)nc1 [Example 121, N-[(1S,2S)-2-hydroxycyclohexyl]-4-methyl-3-{[(2-phenylpyrimidin-5-yl)methyl]amino}benzamide] | 160 nM | 300 nM |
| Cc1ccc(C(=O)N[C@H]2CCCC[C@@H]2O)cc1NCc1ccc(-n2cccn2)nc1 [Example 122, N-[(1S,2S)-2-hydroxycyclohexyl]-4-methyl-3-({[6-(1H-pyrazol-1-yl)pyridin-3-yl]methyl}amino)benzamide] | 150 nM | 300 nM |
| Cc1ncc(C(=O)N[C@H]2CCCC[C@@H]2O)cc1NCc1cnn2ccccc12 [Example 123, N-[(1S,2S)-2-hydroxycyclohexyl]-6-methyl-5-{[(pyrazolo[1,5-a]pyridin-3-yl)methyl]amino}pyridine-3-carboxamide] | 210 nM | 290 nM |
| COC(=O)Nc1ccc(CNc2cc(C(=O)N[C@H]3CCCC[C@@H]3O)ccc2C)cn1 [Example 124, methyl {5-[(5-{[(1S,2S)-2-hydroxycyclohexyl]carbamoyl}-2-methylanilino)methyl]pyridin-2-yl}carbamate] | 22 nM | 25 nM |
| Cc1ccc(C(=O)N[C@H]2CCCC[C@@H]2O)cc1NCc1ccc(NC2CCOCC2)nc1 [Example 125, N-[(1S,2S)-2-hydroxycyclohexyl]-4-methyl-3-[({6-[(oxan-4-yl)amino]pyridin-3-yl}methyl)amino]benzamide] | 130 nM | 30 nM |
| Cc1ccc(C(=O)N[C@H]2CCCC[C@@H]2O)cc1NCc1cnc(Nc2ccccn2)nc1 [Example 126, N-[(1S,2S)-2-hydroxycyclohexyl]-4-methyl-3-[({2-[(pyridin-2-yl)amino]pyrimidin-5-yl}methyl)amino]benzamide] | 45 nM | 64 nM |
| Cc1ccc(C(=O)N[C@H]2CCCC[C@@H]2O)cc1NCc1ccc(NC(=O)N2CCOCC2)nc1 [Example 127, N-{5-[(5-{[(1S,2S)-2-hydroxycyclohexyl]carbamoyl}-2-methylanilino)methyl]pyridin-2-yl}morpholine-4-carboxamide] | 63 nM | 45 nM |
| COc1ccc(-c2ncc(CNc3cc(C(=O)N[C@H]4CCCC[C@@H]4O)ccc3C)cn2)cc1 [Example 128, N-[(1S,2S)-2-hydroxycyclohexyl]-3-({[2-(4-methoxyphenyl)pyrimidin-5-yl]methyl}amino)-4-methylbenzamide] | 180 nM | 79 nM |
| Cc1ccc(C(=O)N[C@H]2CCCC[C@@H]2O)cc1NCc1ccc(NC(=O)Nc2cccnc2)nc1 [Example 129, N-[(1S,2S)-2-hydroxycyclohexyl]-4-methyl-3-{[(6-{[(pyridin-3-yl)carbamoyl]amino}pyridin-3-yl)methyl]amino}benzamide] | 17 nM | 20 nM |
| Cc1ccc(C(=O)N[C@H]2CCCC[C@@H]2O)cc1NCc1ccc(NC2CCC2)nc1 [Example 130, 3-({[6-(cyclobutylamino)pyridin-3-yl]methyl}amino)-N-[(1S,2S)-2-hydroxycyclohexyl]-4-methylbenzamide] | 80 nM | 53 nM |
| Cc1ccc(C(=O)N[C@H]2CCCC[C@@H]2O)cc1NCc1cnc(N)cn1 [Example 131, 3-{[(5-aminopyrazin-2-yl)methyl]amino}-N-[(1S,2S)-2-hydroxycyclohexyl]-4-methylbenzamide] | 490 nM | 340 nM |
| Cc1ccc(C(=O)N[C@H]2CCCC[C@@H]2O)cc1NCc1cnc(NC2CCOCC2)nc1 [Example 132, N-[(1S,2S)-2-hydroxycyclohexyl]-4-methyl-3-[({2-[(oxan-4-yl)amino]pyrimidin-5-yl}methyl)amino]benzamide] | 72 nM | 73 nM |
| Cc1ccc(C(=O)N[C@H]2CCCC[C@@H]2O)cc1NCc1ccc(NC(=O)N(C)C2CC2)nc1 [Example 133, 3-{[(6-{[cyclopropyl(methyl)carbamoyl]amino}pyridin-3-yl)methyl]amino}-N-[(1S,2S)-2-hydroxycyclohexyl]-4-methylbenzamide] | 170 nM | 110 nM |
| Cc1ccc(C(=O)N[C@H]2CCCC[C@@H]2O)cc1NCc1ccc(NC(C)C)nc1 [Example 134, N-[(1S,2S)-2-hydroxycyclohexyl]-4-methyl-3-[({6-[(propan-2-yl)amino]pyridin-3-yl}methyl)amino]benzamide] | 170 nM | 60 nM |
| Cc1ccc(C(=O)N[C@H]2CCCC[C@@H]2O)cc1NCc1cnc(N[C@@H]2CCOC2)nc1 [Example 135, N-[(1S,2S)-2-hydroxycyclohexyl]-4-methyl-3-{[(2-{[(3R)-oxolan-3-yl]amino}pyrimidin-5-yl)methyl]amino}benzamide] | 120 nM | 390 nM |
